In publication PMC10993126, “Capture of endogenous lipids in peptidiscs and effect on protein stability and activity” (iScience, 2024):

How the values were obtained:
[1] = tested on: T1, SecYEG (HD-SecYEG; PD-SecYEG-CL); test: CL added before peptidisc reconstitution; SecA ATPase by Malachite green; SecA binding by clear-native PAGE; type: biochemical, Escherichia coli; conditions: 20:1 lipid to SecYEG molar ratio; with SecA; 1 mM ATP, 10 mM MgCl2, pH 8.8, 37°C; lipid activator
T1 construct: gene secY; read out with SecA; with Protein translocase subunit SecA
T1 sequence (P0AG96 whole entry): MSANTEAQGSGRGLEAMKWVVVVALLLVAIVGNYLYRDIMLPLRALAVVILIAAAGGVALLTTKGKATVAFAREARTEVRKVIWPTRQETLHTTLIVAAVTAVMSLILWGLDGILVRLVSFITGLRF
T1 sequence (P0AGA2 whole entry, further chain): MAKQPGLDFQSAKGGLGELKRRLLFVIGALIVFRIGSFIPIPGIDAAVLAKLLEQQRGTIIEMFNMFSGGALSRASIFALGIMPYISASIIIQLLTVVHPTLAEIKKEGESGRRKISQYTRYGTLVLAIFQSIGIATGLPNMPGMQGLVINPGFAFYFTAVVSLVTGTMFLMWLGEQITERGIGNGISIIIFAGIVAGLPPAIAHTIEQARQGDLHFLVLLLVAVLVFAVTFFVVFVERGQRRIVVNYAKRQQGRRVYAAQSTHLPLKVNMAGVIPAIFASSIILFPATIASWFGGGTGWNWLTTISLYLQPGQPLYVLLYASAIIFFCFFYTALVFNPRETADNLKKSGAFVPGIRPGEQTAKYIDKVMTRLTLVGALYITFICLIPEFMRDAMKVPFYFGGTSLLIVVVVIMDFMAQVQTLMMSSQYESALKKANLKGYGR
T1 sequence (P10408 whole entry, further chain): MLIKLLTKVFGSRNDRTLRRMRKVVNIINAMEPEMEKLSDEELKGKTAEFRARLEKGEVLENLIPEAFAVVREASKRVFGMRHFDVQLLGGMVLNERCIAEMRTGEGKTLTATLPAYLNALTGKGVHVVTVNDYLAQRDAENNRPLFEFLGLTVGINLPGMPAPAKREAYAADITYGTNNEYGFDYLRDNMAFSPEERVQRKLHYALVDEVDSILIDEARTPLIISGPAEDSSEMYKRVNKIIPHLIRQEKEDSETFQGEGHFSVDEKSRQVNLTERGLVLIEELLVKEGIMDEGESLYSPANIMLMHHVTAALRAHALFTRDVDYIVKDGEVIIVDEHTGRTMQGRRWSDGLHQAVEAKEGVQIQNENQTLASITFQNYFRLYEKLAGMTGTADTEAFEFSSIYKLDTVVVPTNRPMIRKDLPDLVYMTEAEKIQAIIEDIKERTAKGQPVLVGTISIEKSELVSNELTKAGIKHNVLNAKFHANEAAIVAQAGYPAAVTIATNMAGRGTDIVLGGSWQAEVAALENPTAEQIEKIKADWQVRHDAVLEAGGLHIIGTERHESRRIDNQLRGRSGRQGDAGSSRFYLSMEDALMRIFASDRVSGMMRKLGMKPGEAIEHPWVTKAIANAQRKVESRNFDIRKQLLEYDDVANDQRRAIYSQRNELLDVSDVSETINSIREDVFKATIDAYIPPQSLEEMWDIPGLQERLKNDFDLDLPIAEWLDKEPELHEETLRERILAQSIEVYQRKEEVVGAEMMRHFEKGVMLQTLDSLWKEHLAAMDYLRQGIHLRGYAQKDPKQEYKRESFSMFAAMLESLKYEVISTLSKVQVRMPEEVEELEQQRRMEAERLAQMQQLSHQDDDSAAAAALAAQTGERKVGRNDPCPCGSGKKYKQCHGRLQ
T1 sequence (P0AG99 whole entry, further chain): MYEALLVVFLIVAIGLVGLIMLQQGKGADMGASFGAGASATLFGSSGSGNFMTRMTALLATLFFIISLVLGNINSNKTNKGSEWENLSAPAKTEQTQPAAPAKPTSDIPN

[2] = target: the molecule itself; test: native gel or EMSA; 5-13% native PAGE with Coomassie staining of the DDM-MsbA and peptidisc-MsbA preparations (DDC, DLW, DHW)

Row | Molecule | fold increase in SecA ATPase activity [1] | stoichiometry N [2]
1 | CCCCCCCC/C=C\CCCCCCCC(=O)O[C@H](COC(=O)CCCCCCCCCCCCCCC)COP(=O)(O)OCC(O)COP(=O)(O)OC[C@@H](COC(=O)CCCCCCCCCCCCCCC)OC(=O)CCCCCCC/C=C\CCCCCCCC (some centres unmarked) [CL, 1',3'-bis[1-palmitoyl-2-oleoyl-sn-glycero-3-phospho]-glycerol] | ~ 4 fold | –
2 | His6-tagged MsbA (natural protein, UniProt P60752 1-582, looked up, The same protein was prepared with different amounts of endogenous lipid (DDC, DLW, DHW in peptidisc; DDM in detergent); also called DDC-MsbA; DLW-MsbA; source: E. coli BL21(DE3), membranes solubilized with DDM, purified (Ni-NTA), reconstituted in peptidiscs or kept in DDM) MHNDKDLSTWQTFRRLWPTIAPFKAGLIVAGVALILNAASDTFMLSLLKPLLDDGFGKTDRSVLVWMPLVVIGLMILRGITSYVSSYCISWVSGKVVMTMRRRLFGHMMGMPVSFFDKQSTGTLLSRITYDSEQVASSSSGALITVVREGASIIGLFIMMFYYSWQLSIILIVLAPIVSIAIRVVSKRFRNISKNMQNTMGQVTTSAEQMLKGHKEVLIFGGQEVETKRFDKVSNRMRLQGMKMVSASSISDPIIQLIASLALAFVLYAASFPSVMDSLTAGTITVVFSSMIALMRPLKSLTNVNAQFQRGMAACQTLFTILDSEQEKDEGKRVIERATGDVEFRNVTFTYPGRDVPALRNINLKIPAGKTVALVGRSGSGKSTIASLITRFYDIDEGEILMDGHDLREYTLASLRNQVALVSQNVHLFNDTVANNIAYARTEQYSREQIEEAARMAYAMDFINKMDNGLDTVIGENGVLLSGGQRQRIAIARALLRDSPILILDEATSALDTESERAIQAALDELQKNRTSLVIAHRLSTIEKADEIVVVEDGVIVERGTHNDLLEHRGVYAQLHKMQFGQ | – | 2
